Assay results as given in patent publication EP0381913A1, “Benzohydroxamic-acid derivatives” (SANDOZ AG, priority 1988, dated 1990).

Tested on: weeds
Assay: greenhouse tests after either or both pre- and post-emergence application
Type: in vivo
Settings: application rate corresponding to 0.25 kg/ha
Method: In pre-emergence testing, small plastic greenhouse pots filled with dry soil are seeded with the various weed seeds. Twenty-four hours or less after the seeding, the pots are sprayed with water until the soil is wet and the test compounds formulated as aqueous emulsions of acetone solutions containing emulsifiers are sprayed at the indicated concentrations emulsifiers are sprayed on the surface of the soil. After spraying, the soil containers are placed in the greenhouse and provided with supplementary heat as required and daily or more frequent watering. The plants are maintained under these conditions for a period of from 14 to 21 days, at which time the conditions of the plants and the degree of injury to the plants is rated.
After spraying, the plants are placed in a greenhouse and watered daily or more frequently. Water is not applied to the foliage of the treated plants. The severity of the injury is determined 21 days after treatment and is rated.

## COC(=O)CON(C(C)=O)C(=O)c1c(Cl)ccc(Cl)c1OC [Compound 1.12, Methyl N-acetyl-N-(3,6-dichloro-2methoxy)benzoylaminooxyacetate]
  control of weeds: substantial control of weeds
